Read-outs that look alike come from different tables or passages of the source.
What was measured:
MshC D251N mutant [1] = target: T1, MshC D251N mutant (Mycolicibacterium smegmatis, UniProt A0QZY0, D251N)
MshC D251A mutant [2] = target: T2, MshC D251A mutant (Mycolicibacterium smegmatis, UniProt A0QZY0, D251A)
MshC W227F mutant [3] = target: T3, MshC W227F mutant (Mycolicibacterium smegmatis, UniProt A0QZY0, W227F)
WT MshC [4] = target: T4, WT MshC (Mycolicibacterium smegmatis, UniProt A0QZY0); assay: Pre-steady state kinetics of cysteine adenylation; format: biochemical, Mycobacterium smegmatis
T4 sequence (A0QZY0 1-412): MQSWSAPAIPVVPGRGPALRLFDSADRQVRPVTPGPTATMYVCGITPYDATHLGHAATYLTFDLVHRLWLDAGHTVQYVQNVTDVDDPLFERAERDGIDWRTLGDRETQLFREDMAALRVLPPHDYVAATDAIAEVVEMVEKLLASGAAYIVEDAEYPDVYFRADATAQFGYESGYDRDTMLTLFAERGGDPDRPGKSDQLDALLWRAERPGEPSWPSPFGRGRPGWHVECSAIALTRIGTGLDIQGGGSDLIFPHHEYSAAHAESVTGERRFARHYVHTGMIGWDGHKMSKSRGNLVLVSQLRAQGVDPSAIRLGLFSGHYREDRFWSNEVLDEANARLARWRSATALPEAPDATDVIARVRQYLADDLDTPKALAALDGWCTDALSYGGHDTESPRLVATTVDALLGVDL

MshC T83V mutant = MshC T83V mutant (Mycolicibacterium smegmatis, UniProt A0QZY0, T83V); format: biochemical, Mycobacterium smegmatis
MshC T46V mutant [5] = target: T5, MshC T46V mutant (Mycolicibacterium smegmatis, UniProt A0QZY0, T46V); assay: Pre-steady state kinetics of cysteine adenylation; format: biochemical, Mycobacterium smegmatis
MshC T46V mutant [6] = target: T5, MshC T46V mutant
MshC W227H mutant [7] = target: T6, MshC W227H mutant (Mycolicibacterium smegmatis, UniProt A0QZY0, W227H)
MshC H55A mutant [8] = target: T7, MshC H55A mutant (Mycolicibacterium smegmatis, UniProt A0QZY0, H55A); conditions: for Km: steady state, pH 7.8, 25 °C
MshC W227F mutant [9] = target: T3, MshC W227F mutant; assay: Pre-steady state kinetics of cysteine adenylation; format: biochemical, Mycobacterium smegmatis
MshC H55A = MshC H55A (Mycolicibacterium smegmatis, UniProt A0QZY0, H55A); assay: Chemical rescue of enzyme activity by exogenous imidazole; format: biochemical, Mycobacterium smegmatis
WT MshC [10] = target: T4, WT MshC; assay: Effect of added imidazole on enzyme activity; format: biochemical, Mycobacterium smegmatis
WT MshC [11] = target: T4, WT MshC; assay: Coupled spectrophotometric enzyme assay; format: biochemical, Mycobacterium smegmatis; conditions: for Km: steady state, pH 7.8, 25 °C
WT MshC [12] = target: T4, WT MshC; conditions: up to 10 mM ATP; cited from earlier work
MshC H55A mutant [13] = target: T7, MshC H55A mutant; assay: Pre-steady state kinetics of cysteine adenylation; format: biochemical, Mycobacterium smegmatis; conditions: read-out: Kd-ATP; first half reaction, fit to eq 9
MshC D251N mutant [14] = target: T1, MshC D251N mutant; assay: Pre-steady state kinetics of cysteine adenylation; format: biochemical, Mycobacterium smegmatis; conditions: read-out: Kd-ATP; first half reaction, fit to eq 9
MshC W227F mutant [15] = target: T3, MshC W227F mutant; assay: Tryptophan fluorescence titration of inhibitor binding; parameters: species or system Mycobacterium smegmatis; conditions: fluorescence method, 0.1 μM protein, pH 7.8, 25 °C
MshC W227H mutant [16] = target: T6, MshC W227H mutant; assay: as above; parameters: species or system Mycobacterium smegmatis; conditions: fluorescence method, 0.1 μM protein, pH 7.8, 25 °C
MshC D251A mutant [17] = target: T2, MshC D251A mutant; assay: as above; parameters: species or system Mycobacterium smegmatis; conditions: fluorescence method, 0.1 μM protein, pH 7.8, 25 °C
MshC H55A mutant [18] = target: T7, MshC H55A mutant; assay: as above; parameters: species or system Mycobacterium smegmatis; conditions: fluorescence method, 0.1 μM protein, pH 7.8, 25 °C
MshC T46V mutant [19] = target: T5, MshC T46V mutant; assay: as above; parameters: species or system Mycobacterium smegmatis; conditions: fluorescence method, 0.1 μM protein, pH 7.8, 25 °C
WT MshC [20] = target: T4, WT MshC; assay: as above; parameters: species or system Mycobacterium smegmatis; conditions: fluorescence method, 0.1 μM protein, pH 7.8, 25 °C
MshC D251N mutant [21] = target: T1, MshC D251N mutant; assay: as above; parameters: species or system Mycobacterium smegmatis; conditions: fluorescence method, 0.1 μM protein, pH 7.8, 25 °C
[22] = read-out: Km-cys, steady state, pH 7.8, 25 °C
[23] = read-out: Km-GlcN-Ins, at fixed saturating concentrations of ATP and cysteine
[24] = read-out: Km-ATP, steady state, pH 7.8, 25 °C

SMILES: N[C@@H](CS)C(=O)O [cys, L-cysteine]
- Km (MshC D251N mutant [1]; [22]): 480 ± 150 µM
- Km (MshC D251A mutant [2]; [22]): 170 ± 20 µM
- Km (MshC W227F mutant [3]; [22]): 400 ± 100 µM
- Kd (WT MshC [4]): 160 ± 30 µM
- Km (MshC T83V mutant; [22]): 20 ± 1 µM
- Kd (MshC T46V mutant [5]): 800 ± 100 µM
- Km (MshC T46V mutant [6]; [22]): 1900 ± 200 µM
- Km (MshC W227H mutant [7]; [22]): 120 ± 40 µM
- Km (MshC H55A mutant [8]; read-out: Km-cys): 1100 ± 200 µM
- Kd (MshC W227F mutant [9]): 600 ± 100 µM

SMILES: c1c[nH]cn1 [imidazole]
- increase of kcat value (MshC H55A; 100 mM added imidazole, pH 6.75): seven-fold increase
- change in enzyme activity upon addition of imidazole (MshC H55A; pH 7.8 and pH 9): no changes
- effect of added imidazole on enzyme activity (WT MshC [10]): No significant activating or inhibitory effect

SMILES: N[C@@H](CO)C(=O)O [serine]
- activity as substrate (WT MshC [11]; tested up to 5 mM): no activity

SMILES: N[C@H]1[C@@H](OC2[C@H](O)[C@H](O)C(O)[C@H](O)[C@H]2O)O[C@H](CO)[C@@H](O)[C@@H]1O (stereo partly shown) [GlcN-Ins, glucosamine-inositol]
- Km (MshC D251N mutant [1]; [23]): 100 ± 60 µM
- Km (MshC D251A mutant [2]; [23]): 160 ± 10 µM
- Km (MshC W227F mutant [3]; [23]): 150 ± 60 µM
- Km (MshC T83V mutant; [23]): 170 ± 50 µM
- Km (MshC T46V mutant [6]; [23]): 150 ± 80 µM
- Km (MshC W227H mutant [7]; [23]): 600 ± 10 µM
- Km (WT MshC [11]; read-out: Km-GlcN-Ins): 160 ± 50 µM

SMILES: Nc1ncnc2c1ncn2[C@@H]1O[C@H](COP(=O)(O)OP(=O)(O)OP(=O)(O)O)[C@@H](O)[C@H]1O [ATP]
- Km (MshC D251N mutant [1]; [24]): 8900 ± 1600 µM
- substrate inhibition (MshC D251N mutant [1]; up to 20 mM ATP): not observed
- substrate inhibition (WT MshC [12]): no substrate inhibition
- ATP concentration above which enzyme activity decreases (MshC D251A mutant [2]; 2 mM cysteine, 200 μM GlcN-Ins): ~ 1.1 mM
- Km (MshC D251A mutant [2]; [24]): 360 ± 11 µM
- Km (MshC W227F mutant [3]; [24]): 200 ± 50 µM
- Kd (WT MshC [4]; read-out: Kd-ATP, first half reaction, fit to eq 9): 1700 ± 200 µM
- Kd (MshC H55A mutant [13]): 15000 ± 3000 µM
- Km (MshC T83V mutant; [24]): 320 ± 60 µM
- Km (MshC T46V mutant [6]; [24]): 1100 ± 30 µM
- Km (MshC W227H mutant [7]; [24]): 120 ± 10 µM
- Km (WT MshC [11]; read-out: Km-ATP): 1800 ± 100 µM
- Kd (MshC D251N mutant [14]): 10200 ± 2800 µM
- Km (MshC H55A mutant [8]; read-out: Km-ATP): 5200 ± 100 µM

SMILES: Nc1ncnc2c1ncn2[C@@H]1O[C@H](COS(=O)(=O)NC(=O)[C@@H](N)CS)[C@@H](O)[C@H]1O [CSA, 5'-O-[N-(L-cysteinyl)-sulfamonyl]adenosine, reference compound]
- Ki (MshC D251N mutant [1]): 0.52 ± 0.11 µM
- Kd (MshC W227F mutant [15]): 0.053 ± 0.01 µM
- Ki (MshC D251A mutant [2]): 0.93 ± 0.17 µM
- Ki (MshC W227F mutant [3]): 0.056 ± 0.008 µM
- Kd (MshC W227H mutant [16]): 0.045 ± 0.002 µM
- Kd (MshC D251A mutant [17]): 0.34 ± 0.01 µM
- Kd (MshC H55A mutant [18]): 0.35 ± 0.02 µM
- Kd (MshC T46V mutant [19]): 0.15 ± 0.01 µM
- Ki (MshC T46V mutant [6]): 0.36 ± 0.047 µM
- Ki (MshC W227H mutant [7]): 0.03 ± 0.005 µM
- Ki (WT MshC [11]): 0.304 ± 0.04 µM
- Kd (WT MshC [20]): 0.11 ± 0.01 µM
- Ki (MshC H55A mutant [8]): 0.89 ± 0.06 µM
- Kd (MshC D251N mutant [21]): 0.18 ± 0.013 µM

Source: paper PMC2748416 (Biochemistry, 2009)
